pIC50: −log10 of the molar value.
Biological target: T1, New Delhi metallo-β-lactamase-1 (NDM-1) (Escherichia coli, UniProt E5KIY2)
T1 construct: gene blaNDM-1; His-tagged protein (pET28a), ndm-1 from E. coli ZC-YN3
Assay: nitrocefin hydrolysis inhibition assay with purified enzyme
Type: biochemical

T1 sequence (E5KIY2 29-270 limits assumed): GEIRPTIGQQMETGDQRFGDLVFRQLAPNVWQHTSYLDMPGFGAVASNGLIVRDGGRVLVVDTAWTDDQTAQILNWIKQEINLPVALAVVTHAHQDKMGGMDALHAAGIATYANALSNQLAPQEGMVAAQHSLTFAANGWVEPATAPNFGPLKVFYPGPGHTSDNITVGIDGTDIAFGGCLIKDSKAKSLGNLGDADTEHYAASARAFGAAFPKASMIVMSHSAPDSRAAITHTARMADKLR

## O=C(/C=C/c1ccc(O[C@@H]2O[C@H](CO)[C@@H](O)[C@H](O)[C@H]2O)cc1)c1ccc(O)cc1O [isoliquiritin]
  pIC50: 4.04
